Entries after “also recorded” stand apart in the source; their conditions may differ.
Columns and labels:
[1] = target: T1, YTHDF1 (residues 375-552) (Homo sapiens, UniProt Q9BYJ9); assay: FP assay with YTH domain of YTHDF1; format: binding; settings: 0.5 µM YTHDF1, m6A RNA probe 4 nM
T1 construct: Plasmids of the YTH domain of YTHDF1 (residues 375–552); made in house; host or cells: Escherichia coli BL21(DE3); plasmid from the Zhou lab (Boston College)
T1 sequence (Q9BYJ9 375-552): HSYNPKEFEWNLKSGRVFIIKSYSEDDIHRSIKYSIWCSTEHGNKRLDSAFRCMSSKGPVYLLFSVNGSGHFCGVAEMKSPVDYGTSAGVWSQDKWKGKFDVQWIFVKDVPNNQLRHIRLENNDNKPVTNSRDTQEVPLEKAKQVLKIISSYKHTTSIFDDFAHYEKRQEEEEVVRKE
Description: The FP assay was performed in 384-well black plates (Corning no. 4514) with a total reaction volume of 15 μL. The final concentrations of protein (YTHDF2) and RNA were […], respectively, in a buffer containing 20 mM HEPES/KOH pH 7.5, 50 mM NaCl, 0.005% Tween 20, and 1 mM GSH (DTT). Compounds were incubated with protein, added FAM-m^6A RNA probe ([…](m6)ACUGUG) (purchased from IDT), and incubated at 4 °C for 30 min. The fluorescence polarization was measured using a plate reader (TECAN Spark) under an excitation wavelength of 485 nm and an emission wavelength of 535 nm with a bandwidth of 20 nm. […] The data were determined using GraphPad Prism 9.
Figure S8. The FP assay of YTHDF1 binding to the m6A RNA substrate. (A)The purification of YTHDF1 (residues 375-552), molecular weight: 21.9 kDa. (B) The anisotropy values using different concentrations of YTHDF1 with the m6A RNA probe (4 nM), which was used to decide the appropriate […] concentration for the FP (0.5 µM of YTHDF1, Z-factor: 0.65). (C) The […]
(§1) (1 picture or pasted object on this page, not shown here)

YTHDF1 = target: T2, YTHDF1 (Homo sapiens, UniProt Q9BYJ9); assay: EMSA with YTHDF1; format: binding; settings: m6A RNA 20 nM
T2 construct: Plasmids of the YTH domain of YTHDF1 (residues 375–552); made in house; host or cells: Escherichia coli BL21(DE3); plasmid from the Zhou lab (Boston College)
T2 sequence (Q9BYJ9 375-552): T1 sequence (Q9BYJ9 375-552)
Description: (§2) Compounds with different concentrations (3.1–100 μM) were incubated with 250 nM YTH-domain and 20 nM FAM-17mer-RNA in a buffer containing 20 mM HEPES, pH 8.2, 50 mM NaCl, 0.05% Triton X-100, and 5% v/v glycerol for 20 min at 4 °C. The samples were subjected to 12% native polyacrylamide gel and run at 120 V for 90 min at 4 °C using 0.5× TBE buffer. Gel imaging was performed in ChemiDoc MP (Bio-Rad), and Cy2/Alexa488 fluorescence was detected with a 1-min exposure time. Quantification of the gel image was performed by ImageJ.
Figure S12. The EMSA of YTHDF1 binding to the m6A RNA substrate. (A) The YTHDF1–RNA
complex formation in EMSA using m6A RNA (20 nM) and different concentrations of YTHDF1 . (B)
consistent results with that of FP.
as §1

YTHDF3 = target: T3, YTHDF3 (Homo sapiens, UniProt Q7Z739); assay: EMSA with YTHDF3; format: binding; settings: m6A RNA 20 nM
T3 construct: YTHDF3 (residues 391–585); made in house; host or cells: Escherichia coli BL21(DE3); plasmid from the Zhou lab (Boston College)
T3 sequence (Q7Z739 391-585): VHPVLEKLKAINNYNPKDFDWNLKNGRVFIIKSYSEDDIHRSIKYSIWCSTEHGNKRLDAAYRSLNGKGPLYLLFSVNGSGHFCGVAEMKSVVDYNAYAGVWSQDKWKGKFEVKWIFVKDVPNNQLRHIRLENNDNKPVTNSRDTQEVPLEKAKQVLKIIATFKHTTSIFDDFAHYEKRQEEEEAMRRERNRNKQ
Description: as §2
Figure S13. The EMSA of YTHDF3 binding to the m 6A RNA substrate. (A) The YTHDF 3–RNA
complex formation in EMSA using m 6A RNA (20 nM) and different concentrations of YTHDF1 . (B)
as §1

YTHDC2 = target: T4, YTHDC2 (Homo sapiens, UniProt Q9H6S0); assay: EMSA with YTHDC2; format: binding; settings: m6A RNA 20 nM, 10 µM YTHDC2
T4 construct: YTHDC2 (residues 1285–1424); made in house; host or cells: Escherichia coli BL21(DE3); plasmid from the Zhou lab (Boston College)
T4 sequence (Q9H6S0 1285-1424): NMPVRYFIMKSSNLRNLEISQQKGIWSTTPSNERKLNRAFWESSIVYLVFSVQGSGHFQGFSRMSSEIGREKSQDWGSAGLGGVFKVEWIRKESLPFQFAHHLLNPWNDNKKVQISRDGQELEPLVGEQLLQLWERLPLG
Description: as §2
Figure S15. EMSA using m6A RNA and YTHDC2 protein of varied concentrations as indicated.
(A) 20 nM of m6A RNA was used and 10 µM of YTHDC2 was chosen for EMSA. (B) CK-61, CK-
as §1

K562 and JAR cells = assay: Dot blot assay of cellular RNA m6A methylation level; format: cell-based, human; settings: different concentrations, highest 25 μM
Description: JAR and K562 cells were seeded in six-well plates (1.0 × 10^6 cells/well) and incubated overnight. The cells were scraped off directly and then washed with PBS. Total RNA was then extracted with the Aurum Total RNA Mini Kit. The RNA concentration was determined by NanoDrop 2000c (Thermo) and then heated for 5 min at 95 °C. Primary antibody Rb pAb to N^6-methyladenosine (m^6A) (Abcam, ab286164, 1:1000) and secondary antibody HRP-conjugated AffiniPure Goat Anti-Rabbit IgG(H+L) (SA00001–2, 1:8000) were used. Chemiluminescent detection was performed using a ChemiDoc MP (Bio-Rad).

[2] = MTT cytotoxicity assay, JAR; format: cell-based; settings: human, JAR cells, triplicates, read-out: Cytotoxicity against cancer cells (IC50), JAR
Description: (§3) JAR, K562, and HCT116 cells were seeded in 96-well plates (3500 cells/well) and incubated for 8 h. The medium with different concentrations of compounds (100, 33.3, 11.1, 3.7, 1.2, and 0.4 μM) was added to the 96-well plates. Data were normalized to the medium with 0.1% DMSO. After incubation for 72 h, MTT solution (5 mg/mL, 20 μL) was added per well in a dark environment and incubated for 4 h. After the medium was discarded, DMSO (150 μL) was added per well, and the absorbance was measured at 492 nm by a plate reader (TECAN Spark).

[3] = MTT cytotoxicity assay, K562; format: cell-based; settings: human, K562 cells, triplicates, read-out: Cytotoxicity against cancer cells (IC50), K562
Description: as §3

Compound	inhibitory activity against YTHDF1 in FP (in words) [1]	inhibition of m6A RNA binding to YTHDF1 in EMSA (in words) (YTHDF1)	inhibition of m6A RNA binding to YTHDF3 in EMSA (in words) (YTHDF3)	inhibition of m6A RNA binding to YTHDC2 in EMSA (in words) (YTHDC2)	effect on global m6A RNA abundance (dot blot, in words) (K562 and JAR cells)	IC50 at 72 h [2] [µM]	IC50 at 72 h [3] [µM]	IC50 ([1]; read-out: IC50 against YTHDF1 in FP) [µM]
O=C(O)c1ccc(-n2cc(C(=O)c3c(O)ccc4ccccc34)cn2)cc1 [CK-75]	inactive	did not show detectable inhibition	did not show detectable inhibitory activity; also recorded: did not show detectable inhibition	did not show detectable inhibitory activity; also recorded: did not show detectable inhibition	did not significantly impact	47.5	29.7	–
O=C(O)c1ccc(-n2cc(C(=O)c3cc(Cl)cc(Cl)c3O)cn2)cc1 [CK-61]	–	minimal inhibition	did not show detectable inhibitory activity; also recorded: no activity	did not show detectable inhibitory activity; also recorded: no activity	slight increase	> 50	> 50	67.5
Cc1cc(O)c(C(=O)c2cnn(-c3ccc(C(=O)O)cc3)c2)cc1Cl [CK-79]	inactive	did not show detectable inhibition	did not show detectable inhibitory activity; also recorded: did not show detectable inhibition	did not show detectable inhibitory activity; also recorded: did not show detectable inhibition	did not significantly impact	31.6	29.4 ± 16.7	–

— article PMC11862924, “Phenylpyrazoles as Inhibitors of the m^6A RNA-Binding Protein YTHDF2” (JACS Au, 2025)
